Values quoted from earlier work, collected in patent US11612614B2, “Isomorphs of Remdesivir and methods for synthesis of same” (Anzalp Pharmasolutions Pvt. Ltd., priority 2020, dated 2023).
Entries after “also recorded” stand apart in the source; their conditions may differ.

Columns and labels:
[1] = not given; remark: listed apart in the source

## CCC(CC)COC(=O)[C@H](C)N[P@](=O)(OC[C@H]1O[C@@](C#N)(c2ccc3c(N)ncnn23)[C@H](O)[C@@H]1O)Oc1ccccc1 [Remdesivir, 2-ethylbutyl (2S)-2-[[[(2R,3S,4R,5R)-5-(4-aminopyrrolo[2,1-f][1,2,4]triazin-7-yl)-5-cyano-3,4-dihydroxyoxolan-2-yl]methoxy-phenoxyphosphoryl]amino]propanoate]
other
  chemical stability in aqueous media: chemically unstable
[1]; ethanol
  solubility in ethanol: soluble
[1]; water
  solubility in water: practically insoluble; also recorded: relatively insoluble
